Laboratory results as given in BindingDB's records for doi:10.1080/14756360701654894 (National Tsing Hua University, 2008).

Key:
Polyphenol oxidase 2 = target: T1, Polyphenol oxidase 2 (Agaricus bisporus, UniProt O42713); test: Enzyme Assay; settings: pH 6.8; 25 °C
T1 sequence (O42713 whole entry): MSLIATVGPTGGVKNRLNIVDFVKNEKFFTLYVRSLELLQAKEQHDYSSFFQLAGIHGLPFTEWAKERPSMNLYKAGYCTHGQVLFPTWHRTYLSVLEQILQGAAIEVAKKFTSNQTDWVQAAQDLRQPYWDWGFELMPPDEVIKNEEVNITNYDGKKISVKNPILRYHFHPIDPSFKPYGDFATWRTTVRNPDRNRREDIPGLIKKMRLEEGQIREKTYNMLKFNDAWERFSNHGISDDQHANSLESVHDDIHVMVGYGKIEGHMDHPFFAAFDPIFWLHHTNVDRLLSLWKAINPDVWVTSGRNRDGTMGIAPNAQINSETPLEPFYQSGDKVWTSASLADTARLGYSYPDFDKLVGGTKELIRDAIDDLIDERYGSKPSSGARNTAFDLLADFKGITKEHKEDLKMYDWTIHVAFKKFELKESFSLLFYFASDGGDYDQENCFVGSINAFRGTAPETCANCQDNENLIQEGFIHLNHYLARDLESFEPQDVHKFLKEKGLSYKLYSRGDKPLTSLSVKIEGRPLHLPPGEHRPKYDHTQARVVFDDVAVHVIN

Tyrosinase = target: T2, Tyrosinase (Mus musculus, UniProt P11344); test: Enzyme Assay; settings: pH 6.8; 25 °C
T2 sequence (P11344 whole entry): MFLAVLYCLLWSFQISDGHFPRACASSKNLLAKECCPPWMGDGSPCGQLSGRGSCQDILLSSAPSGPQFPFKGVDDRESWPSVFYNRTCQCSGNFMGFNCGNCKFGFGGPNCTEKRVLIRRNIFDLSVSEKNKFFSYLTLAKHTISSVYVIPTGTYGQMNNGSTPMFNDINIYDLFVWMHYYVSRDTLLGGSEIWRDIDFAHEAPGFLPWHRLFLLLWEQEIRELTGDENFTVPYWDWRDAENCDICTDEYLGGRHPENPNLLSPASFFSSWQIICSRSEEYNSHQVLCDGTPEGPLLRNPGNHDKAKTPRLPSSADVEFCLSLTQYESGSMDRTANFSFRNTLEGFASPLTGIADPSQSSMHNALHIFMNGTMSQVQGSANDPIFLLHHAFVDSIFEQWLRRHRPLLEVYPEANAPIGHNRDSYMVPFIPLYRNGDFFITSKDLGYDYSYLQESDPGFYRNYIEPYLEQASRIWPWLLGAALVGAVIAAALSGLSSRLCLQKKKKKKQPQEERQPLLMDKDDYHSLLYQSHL

| Structure (SMILES) | IC50 (Polyphenol oxidase 2) [µM] | IC50 (Tyrosinase) [µM] |
| --- | --- | --- |
| COc1ccc(/C=C2/SC(=S)N(CCC(=O)O)C2=O)cc1 [3-[(5E)-5-[(4-methoxyphenyl)methylidene]-4-oxo-2-sulfanylidene-3-thiazolidinyl]propanoic acid] | 894 | 2390 |
| OCc1ccc(O)cc1 [4-Hydroxybenzyl alcohol] | 350 | 650 |
| COc1cc(-c2nc(S(=O)(=O)c3ccc(C)cc3)c(N3CCOCC3)o2)cc(OC)c1OC [4-[4-(4-methylphenyl)sulfonyl-2-(3,4,5-trimethoxyphenyl)-5-oxazolyl]morpholine] | 402 | 952 |

The next molecules have a lower IC50 (Polyphenol oxidase 2) than those just listed; values first:

| IC50 (Polyphenol oxidase 2) [µM] | IC50 (Tyrosinase) [µM] | Structure (SMILES) |
| --- | --- | --- |
| 296 | – | OCC1OC(Oc2ccc(O)cc2)C(O)C(O)C1O (centres undefined) [2-Hydroxymethyl-6-(4-hydroxy-phenoxy)-tetrahydro-pyran-3,4,5-triol] |
| 87.6 | 188 | Oc1ccc(O)cc1 |
